Experiment: Solubilizing potency: solubility of hydrocortisone in aqueous solutions of cyclodextrin derivatives
Type: physicochemical
Conditions: 5% (w/w) aqueous solutions of the derivative; P264 and P258 crystalline components used without heat drying

- Solubility Of Hydrocortisone: 8.8 mg/mL
Substance: Heptakisdimethylbetacyclodextrin
